Test results published in US5041567A, “Antibacterial monic acid derivatives” (Beecham Group plc, priority 1982, dated 1991).
Converted amounts (≈) assume the structure as drawn.

Key:
E. coli NCTC 10418 [1] = test: MIC against human bacteria in vitro; format: cell-based; details: Escherichia coli, NCTC10418; E. coli NCTC 10418; agar with 5% chocolated horse blood, 18 hours, 37° C.; read-out: MIC
P. mirabilis 889 = test: MIC against human bacteria in vitro; format: cell-based; details: Proteus mirabilis; P. mirabilis 889; 5% chocolated horse blood agar, 18 hours; read-out: MIC
M. suipneumoniae TAM 6N = test: MIC against mycoplasma in vitro; format: cell-based; details: Mesomycoplasma hyopneumoniae, TAM6N, 144 h; M. suipneumoniae TAM 6N; 6 days, 37° C.; read-out: MIC
Strep. faecalis I = test: MIC against human bacteria in vitro; format: cell-based; details: Enterococcus faecalis; Strep. faecalis I; 5% chocolated horse blood agar, 18 hours; read-out: MIC
Strep. dysgalactiae SPD1 = test: MIC against veterinary bacteria in vitro; details: Streptococcus dysgalactiae, SPD1, 18 h
Protocol: (§1) The activity of the compounds of the Examples against various veterinarily important bacteria, was assayed in vitro using two-fold serial dilutions in Diagnostic Sensitivity Test Agar inoculated with 10^4 organisms.

[2] = tested on: Ps. aeruginosa NCTC 10662; test: MIC against human bacteria in vitro; format: cell-based; details: Pseudomonas aeruginosa, NCTC10662; Ps. aeruginosa NCTC 10662; 5% chocolated horse blood agar, 18 hours; read-out: MIC
M. bovis NCTC 10131 = test: microbe, parasite or virus in culture; format: cell-based; details: NCTC10131, 144 h
B. subtilis ATCC 6633 = test: MIC against veterinary bacteria in vitro; details: Bacillus subtilis, ATCC6633, 18 h
Protocol: as §1

M. gallisepticum S6 = test: MIC against mycoplasma in vitro; format: cell-based; details: Mycoplasmoides gallisepticum, 144 h; M. gallisepticum S6; 6 days, 37° C.; read-out: MIC
[3] = tested on: Strep. pyogenes R80/421-A; test: MIC against human bacteria in vitro; format: cell-based; details: Streptococcus pyogenes; Strep. pyogenes R80/421-A; 5% chocolated horse blood agar, 18 hours; read-out: MIC
K. aerogenes A = test: MIC against human bacteria in vitro; format: cell-based; details: Klebsiella aerogenes; K. aerogenes A; 5% chocolated horse blood agar, 18 hours; read-out: MIC
S. typhimurium S18 = test: MIC against veterinary bacteria in vitro; details: Salmonella enterica, TYPHIMURIUM, 18 h
Protocol: as §1

E. coli NCTC 10418 [4] = test: MIC against veterinary bacteria in vitro; details: Escherichia coli, NCTC10418, 18 h
Protocol: as §1

M. suipneumoniae MS 16 = test: MIC against mycoplasma in vitro; format: cell-based; details: Mesomycoplasma hyopneumoniae, MS16, 144 h; M. suipneumoniae MS 16; 6 days, 37° C.; read-out: MIC
Bord. bronchiseptica B09 = test: MIC against veterinary bacteria in vitro; details: Bordetella bronchiseptica, B09, 18 h
Protocol: as §1

M. suipneumoniae NB12 = test: MIC against mycoplasma in vitro; format: cell-based; details: Mesomycoplasma hyopneumoniae, NB12, 144 h
E. coli E1 = test: MIC against veterinary bacteria in vitro; details: Escherichia coli, E1, 18 h
Protocol: as §1

[5] = tested on: Staph. aureus 152 (pen. sens); test: MIC against veterinary bacteria in vitro; details: Staphylococcus aureus, 18 h
Protocol: as §1

Strep. uberis SPU1 = test: MIC against veterinary bacteria in vitro; details: Streptococcus uberis, SPU1, 18 h
Protocol: as §1

Strep. spp. 64/848-C = test: MIC against human bacteria in vitro; format: cell-based; details: Strep. spp. 64/848-C; 5% chocolated horse blood agar, 18 hours; read-out: MIC
[6] = tested on: M. bovigenitalium ATCC 14173; test: MIC against mycoplasma in vitro; format: cell-based; details: 144 h
M. suipneumoniae Str. 11 = test: MIC against mycoplasma in vitro; format: cell-based; details: Mesomycoplasma hyopneumoniae, 144 h; M. suipneumoniae Str. 11; 6 days, 37° C.; read-out: MIC

C/C(=C\c1ncc(Cc2ccccc2)o1)C[C@@H]1OC[C@H](C[C@@H]2O[C@H]2[C@@H](C)[C@H](C)O)[C@@H](O)[C@H]1O [Example 27, 5-Benzyl-2-(1-normon-2-yl)oxazole A] was tested, and the MIC (E. coli NCTC 10418 [1]) was > 64 µg/mL, the MIC (P. mirabilis 889) was > 64 µg/mL and the MIC (M. suipneumoniae TAM 6N) was 10 µg/mL (≈ 21.9 µM). For the same compound, the MIC (Strep. faecalis I) was > 64 µg/mL, the MIC (Strep. dysgalactiae SPD1) was 2.5 µg/mL (≈ 5.46 µM) and the MIC [2] was > 64 µg/mL. The MIC (M. bovis NCTC 10131) was 0.05 µg/mL (≈ 0.109 µM), the MIC (B. subtilis ATCC 6633) was 2.5 µg/mL (≈ 5.46 µM) and the MIC (M. gallisepticum S6) was > 10 µg/mL. For the same compound, the MIC [3] was 4 µg/mL (≈ 8.74 µM), the MIC (K. aerogenes A) was > 64 µg/mL and the MIC (S. typhimurium S18) was > 80 µg/mL. The MIC (E. coli NCTC 10418 [4]) was > 80 µg/mL, the MIC (M. suipneumoniae MS 16) was 5 µg/mL (≈ 10.9 µM) and the MIC (Bord. bronchiseptica B09) was 80 µg/mL (≈ 175 µM). For the same compound, the MIC (M. suipneumoniae NB12) was 5 µg/mL (≈ 10.9 µM), the MIC (E. coli E1) was > 80 µg/mL and the MIC [5] was 10 µg/mL (≈ 21.9 µM). For the same compound, the MIC (Strep. uberis SPU1) was 1.25 µg/mL (≈ 2.73 µM), the MIC (Strep. spp. 64/848-C) was 16 µg/mL (≈ 35 µM) and the MIC [6] was 0.25 µg/mL (≈ 0.546 µM). It also gave an MIC (M. suipneumoniae Str. 11) of 5 µg/mL (≈ 10.9 µM).
